Experimental findings from patent US20200239530A1, “COMPOUNDS AND METHODS OF MODULATING PROTEIN DEGRADATION” (Vividion Therapeutics, Inc., priority 2017, published 2020) are described below.

What all share (test): Competitive cysteine profiling, probe competition (Table 2B)
Common to all, as to type: binding

For assay [1], the target named is T1, Q9BSF8 (Homo sapiens, UniProt Q9BSF8).
T1 construct: 200 μL of lysate containing 5 mg/ml proteome was treated with 2 μL of 100× compound stock; endogenous in cells
T1 sequence (Q9BSF8 whole entry): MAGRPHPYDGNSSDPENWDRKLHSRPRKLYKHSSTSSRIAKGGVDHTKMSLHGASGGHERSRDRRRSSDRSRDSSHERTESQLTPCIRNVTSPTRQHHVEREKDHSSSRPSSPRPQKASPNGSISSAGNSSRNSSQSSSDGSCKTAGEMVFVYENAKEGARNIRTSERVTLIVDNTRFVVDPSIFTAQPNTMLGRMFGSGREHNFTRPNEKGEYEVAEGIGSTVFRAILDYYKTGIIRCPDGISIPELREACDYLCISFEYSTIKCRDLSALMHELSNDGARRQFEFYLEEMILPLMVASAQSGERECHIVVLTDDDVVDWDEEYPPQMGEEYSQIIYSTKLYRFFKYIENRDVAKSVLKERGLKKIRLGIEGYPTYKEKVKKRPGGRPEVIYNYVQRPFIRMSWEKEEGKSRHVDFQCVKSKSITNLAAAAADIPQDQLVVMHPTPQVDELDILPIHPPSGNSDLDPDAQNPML
The text has this:
(§1) The following 96-well sample prep protocol was used for sample preparation.

Assay [2] addresses T2, Q9BX70 (Homo sapiens, UniProt Q9BX70).
T2 construct: 200 μL of lysate containing 5 mg/ml proteome was treated with 2 μL of 100× compound stock; endogenous in cells
Excerpt: as §1

The target of assay [3] is T3, Q9P203 (Homo sapiens, UniProt Q9P203).
T3 construct: 200 μL of lysate containing 5 mg/ml proteome was treated with 2 μL of 100× compound stock; endogenous in cells
T3 sequence (Q9P203 1-1132): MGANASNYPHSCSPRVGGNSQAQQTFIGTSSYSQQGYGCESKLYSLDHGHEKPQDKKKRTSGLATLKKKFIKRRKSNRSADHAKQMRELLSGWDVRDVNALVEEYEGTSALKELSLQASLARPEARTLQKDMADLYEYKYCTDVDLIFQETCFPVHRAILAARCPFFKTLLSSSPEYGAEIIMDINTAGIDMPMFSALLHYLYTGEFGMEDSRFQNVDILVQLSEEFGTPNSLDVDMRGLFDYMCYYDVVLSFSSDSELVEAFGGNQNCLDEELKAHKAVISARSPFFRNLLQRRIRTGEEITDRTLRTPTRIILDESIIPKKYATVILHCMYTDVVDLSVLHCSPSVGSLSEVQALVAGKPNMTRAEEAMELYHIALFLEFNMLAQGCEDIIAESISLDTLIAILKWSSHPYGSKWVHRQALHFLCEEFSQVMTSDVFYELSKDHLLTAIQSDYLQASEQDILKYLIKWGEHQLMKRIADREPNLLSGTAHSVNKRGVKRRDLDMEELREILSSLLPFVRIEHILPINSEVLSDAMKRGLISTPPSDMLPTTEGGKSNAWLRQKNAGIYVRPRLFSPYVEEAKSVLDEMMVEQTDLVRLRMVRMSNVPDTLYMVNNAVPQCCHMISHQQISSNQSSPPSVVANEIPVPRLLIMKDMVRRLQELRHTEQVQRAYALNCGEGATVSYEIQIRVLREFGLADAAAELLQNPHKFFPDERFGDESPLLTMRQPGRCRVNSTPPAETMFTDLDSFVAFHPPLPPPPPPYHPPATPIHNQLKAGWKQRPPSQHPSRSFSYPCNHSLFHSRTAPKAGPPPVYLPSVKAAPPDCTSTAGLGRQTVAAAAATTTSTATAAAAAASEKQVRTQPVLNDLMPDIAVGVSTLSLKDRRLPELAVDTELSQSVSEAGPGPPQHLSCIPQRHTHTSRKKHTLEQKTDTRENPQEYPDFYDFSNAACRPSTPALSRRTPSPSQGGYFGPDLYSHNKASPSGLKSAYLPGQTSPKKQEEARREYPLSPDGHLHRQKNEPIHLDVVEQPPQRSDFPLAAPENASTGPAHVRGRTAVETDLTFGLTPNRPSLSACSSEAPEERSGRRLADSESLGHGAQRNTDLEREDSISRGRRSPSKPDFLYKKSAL
Excerpt: as §1

Assay [4] concerns the target T4, Q9H0C5 (Homo sapiens, UniProt Q9H0C5).
T4 construct: 200 μL of lysate containing 5 mg/ml proteome was treated with 2 μL of 100× compound stock; endogenous in cells
T4 sequence (Q9H0C5 1-482): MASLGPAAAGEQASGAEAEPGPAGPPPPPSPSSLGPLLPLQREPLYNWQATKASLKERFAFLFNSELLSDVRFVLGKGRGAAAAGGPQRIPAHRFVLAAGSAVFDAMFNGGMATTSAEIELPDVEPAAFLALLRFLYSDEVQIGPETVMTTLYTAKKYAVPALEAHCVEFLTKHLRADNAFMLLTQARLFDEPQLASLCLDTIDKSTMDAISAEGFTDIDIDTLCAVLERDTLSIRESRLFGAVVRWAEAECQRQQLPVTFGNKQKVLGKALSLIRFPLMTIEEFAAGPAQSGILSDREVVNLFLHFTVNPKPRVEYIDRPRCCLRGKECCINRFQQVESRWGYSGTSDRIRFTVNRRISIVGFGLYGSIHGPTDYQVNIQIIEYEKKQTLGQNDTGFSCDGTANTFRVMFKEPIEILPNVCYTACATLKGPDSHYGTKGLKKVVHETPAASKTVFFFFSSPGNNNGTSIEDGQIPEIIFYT
Excerpt: as §1

Assay [5] addresses T5, Q96Q07 (Homo sapiens, UniProt Q96Q07).
T5 construct: 200 μL of lysate containing 5 mg/ml proteome was treated with 2 μL of 100× compound stock; endogenous in cells
T5 sequence (Q96Q07 1-612): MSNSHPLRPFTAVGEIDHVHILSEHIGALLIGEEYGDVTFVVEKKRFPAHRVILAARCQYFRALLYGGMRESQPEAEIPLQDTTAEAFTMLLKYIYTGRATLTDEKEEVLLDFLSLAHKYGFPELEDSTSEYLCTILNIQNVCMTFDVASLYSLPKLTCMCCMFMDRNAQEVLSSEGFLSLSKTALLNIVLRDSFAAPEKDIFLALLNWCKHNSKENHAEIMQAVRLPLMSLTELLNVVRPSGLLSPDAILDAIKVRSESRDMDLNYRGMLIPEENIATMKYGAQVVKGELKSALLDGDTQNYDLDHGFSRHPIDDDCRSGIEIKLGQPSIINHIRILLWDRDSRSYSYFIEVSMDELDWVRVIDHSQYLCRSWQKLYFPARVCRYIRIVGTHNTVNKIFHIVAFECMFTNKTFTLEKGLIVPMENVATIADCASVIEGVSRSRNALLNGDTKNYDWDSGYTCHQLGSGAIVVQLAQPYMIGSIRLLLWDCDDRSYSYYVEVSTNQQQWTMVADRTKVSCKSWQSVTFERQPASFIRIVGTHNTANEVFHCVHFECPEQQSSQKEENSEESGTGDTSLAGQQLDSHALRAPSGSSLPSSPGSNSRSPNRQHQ
Excerpt: as §1

[6] abbreviates: 100 uM, read-out: KB02_100 uM_percent_inhibition.
[7] abbreviates: read-out: KB02_500 uM_percent_inhibition.
Where [8] appears, read: 500 uM, read-out: KB05_500 uM_percent_inhibition.

Like-named read-outs stand apart in the source and are kept apart here.

T2 sequence (Q9BX70 whole entry): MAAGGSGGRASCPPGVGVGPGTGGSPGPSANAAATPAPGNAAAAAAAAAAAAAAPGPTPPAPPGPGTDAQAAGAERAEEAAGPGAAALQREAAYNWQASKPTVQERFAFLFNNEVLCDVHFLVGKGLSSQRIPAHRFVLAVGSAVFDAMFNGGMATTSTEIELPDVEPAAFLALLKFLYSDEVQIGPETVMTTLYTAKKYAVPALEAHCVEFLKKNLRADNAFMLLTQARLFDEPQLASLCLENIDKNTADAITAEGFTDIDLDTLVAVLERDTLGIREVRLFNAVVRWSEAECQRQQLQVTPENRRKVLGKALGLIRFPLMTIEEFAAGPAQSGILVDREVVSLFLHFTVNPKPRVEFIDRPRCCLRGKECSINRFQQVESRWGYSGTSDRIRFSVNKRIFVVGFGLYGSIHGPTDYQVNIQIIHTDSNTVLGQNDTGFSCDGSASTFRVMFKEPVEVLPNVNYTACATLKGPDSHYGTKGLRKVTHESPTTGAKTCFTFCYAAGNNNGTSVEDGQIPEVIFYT

Take `O=C(CCl)Nc1cc(C(F)(F)F)cc(C(F)(F)F)c1` [KBO3]: the “KB03_100 uM_percent_inhibition” value in assay [1] (100 uM) amounted to 29%. Also, the “KB03_500 uM_percent_inhibition” value in assay [2] (500 uM) is listed as 40%; in assay [3] (500 uM), 13%.

For `COc1ccc2c(c1)CCCN2C(=O)CCl` [KB02], the inhibition at 100 µM came out at 9% in assay [4] (setting [6]) and 4% in assay [2] (setting [6]). Further, the “KB02_500 uM_percent_inhibition” value was determined as 45% in assay [5] (500 uM) and 17% in assay [3] (500 uM). Moreover, the values for the inhibition at 500 µM in assay [5] (setting [7]) and in assay [3] (setting [7]) were 54% and 12%, respectively.

In the case of `C=CC(=O)N(c1ccccc1)c1ccc(Br)cc1` [KB05], the “KB05_500 uM_percent_inhibition” value in assay [4] (500 uM) was found to be 36%; in assay [1] (500 uM), 53%. Besides, the inhibition at 500 µM in assay [4] (setting [8]) was determined as 56%; in assay [5] (read-out: KB05_500 uM_percent_inhibition), 65%; in assay [1] (setting [8]), 37%. Further, the inhibition at 100 µM in assay [1] (100 uM, read-out: KB05_100 uM_percent_inhibition) is 27%.
